Laboratory results taken from patent US11590116B2 (THERAVANCE BIOPHARMA R&D IP, LLC, priority 2019, dated 2023).

Experiments:
[1] = target: T1, recombinant human ALK5 (TGF-βR1) protein (Homo sapiens, UniProt P36897); assay: Biochemical ALK5 (TGF-βR1) assay to measure pKi (LANCE Ultra ULight kinase assay); conditions: apparent pKi from pIC50 by Cheng-Prusoff, read-out: ALK5 pKi (converted)
T1 construct: purchased Life Technologies PR9075A
T1 sequence (P36897 34-503): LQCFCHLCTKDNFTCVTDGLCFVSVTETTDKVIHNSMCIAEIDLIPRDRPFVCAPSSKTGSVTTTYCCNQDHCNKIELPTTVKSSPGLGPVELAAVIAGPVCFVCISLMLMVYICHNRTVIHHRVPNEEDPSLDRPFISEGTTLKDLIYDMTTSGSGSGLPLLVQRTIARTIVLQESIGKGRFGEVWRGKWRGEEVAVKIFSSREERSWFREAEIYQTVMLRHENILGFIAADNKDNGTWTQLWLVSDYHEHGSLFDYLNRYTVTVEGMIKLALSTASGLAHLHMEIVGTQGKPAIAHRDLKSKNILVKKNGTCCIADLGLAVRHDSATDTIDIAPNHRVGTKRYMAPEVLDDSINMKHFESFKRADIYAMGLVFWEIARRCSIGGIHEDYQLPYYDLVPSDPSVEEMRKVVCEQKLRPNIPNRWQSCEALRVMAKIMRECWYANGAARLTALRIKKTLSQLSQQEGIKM
Outline: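 After a 60 min room-temperature preincubation of ALK5 with compound, phosphorylation proceeds 60 min at 37 °C on ATP addition (125 μM as 5× stock). Detection: Eu-labelled phospho-Thr1342 Topo IIα antibody in EDTA buffer, pH 7.0; emission 665 nm.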

[2] = system: TGF-β-stimulated SMAD3 phosphorylation in BEAS-2B cells; assay: Cellular ALK5 potency assay, inhibition of TGF-β stimulated pSMAD3 formation in BEAS-2B cells; assay type: cell-based; conditions: Homo sapiens; inhibition of TGF-β stimulated pSMAD3 formation, BEAS-2B cells; read-out: BEAS2B pIC50 (converted)
Outline: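 Potency is reported as pIC50, derived from concentration-dependent reduction of pSMAD3 AlphaLISA signal against TGF-β-stimulated cells without compound. BEAS-2B cells received compound for 1 h before a 30-min stimulation with 10 ng/mL TGF-β.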

Ki [1] [nM] | SMILES | IC50 [2] [nM]
0.0398 to 0.316 | Cc1cccc(-c2[nH]cnc2-c2ccc3ncc(-c4ncc(C(=O)O[C@H]5CCNC5)cn4)cc3c2)n1 [Compound 1158, [(3S)-pyrrolidin-3-yl] 2-[6-[5-(6-methyl-2-pyridyl)-1H-imidazol-4-yl]-3-quinolyl]pyrimidine-5-carboxylate] | 25.1 to 158
< 0.0316 | Cc1cccc(-c2[nH]cnc2-c2ccc3ncc(-c4ncc(C(=O)O[C@H]5CCNC5)s4)cc3c2)n1 [Compound 1160, [(3S)-pyrrolidin-3-yl] 2-[6-[5-(6-methyl-2-pyridyl)-1H-imidazol-4-yl]-3-quinolyl]thiazole-5-carboxylate] | < 20
3.98 to 31.6 | Cc1cccc(-c2[nH]cnc2-c2ccc3nccc(C(=O)O[C@H]4CC[C@@](C)(N)CC4)c3c2)n1 [Compound 1161, (4-amino-4-methyl-cyclohexyl) 6-[5-(6-methyl-2-pyridyl)-1H-imidazol-4-yl]quinoline-4-carboxylate] | 200 to 1260
0.398 to 3.16 | Cc1cccc(-c2[nH]cnc2-c2ccc3ncc(NCC(=O)O)cc3c2)n1 [Compound 1162, 2-[[6-[5-(6-methyl-2-pyridyl)-1H-imidazol-4-yl]-3-quinolyl]amino]acetic acid] | 200 to 1260
0.0398 to 0.316 | Cc1cccc(-c2[nH]cnc2-c2ccc3ncc(-c4ccc(C(=O)OC[C@@H]5CCCN5)cn4)cc3c2)n1 [Compound 1163, [(2S)-pyrrolidin-2-yl]methyl 6-[6-[5-(6-methyl-2-pyridyl)-1H-imidazol-4-yl]-3-quinolyl]pyridine-3-carboxylate] | 25.1 to 158
0.0398 to 0.316 | Cc1cccc(-c2[nH]ncc2-c2ccc3ncc(C(=O)OCCC4CCNC4)cc3c2)n1 (centres unmarked) [Compound 1164, 2-pyrrolidin-3-ylethyl 6-[5-(6-methyl-2-pyridyl)-1H-pyrazol-4-yl]quinoline-3-carboxylate] | 25.1 to 158
0.0398 to 0.316 | Cc1cccc(-c2[nH]cnc2-c2ccc3ncc(-c4ccc(C(=O)OC[C@@H]5CCCCN5)cn4)cc3c2)n1 [Compound 1165, [(2S)-2-piperidyl]methyl 6-[6-[5-(6-methyl-2-pyridyl)-1H-imidazol-4-yl]-3-quinolyl]pyridine-3-carboxylate] | 25.1 to 158
0.0398 to 0.316 | Cc1cccc(-c2[nH]cnc2-c2ccc3ncc(-c4ncc(C(=O)O[C@@H]5CCNC5)s4)cc3c2)n1 [Compound 1166, [(3R)-pyrrolidin-3-yl] 2-[6-[5-(6-methyl-2-pyridyl)-1H-imidazol-4-yl]-3-quinolyl]thiazole-5-carboxylate] | 25.1 to 158
0.0398 to 0.316 | Cc1cccc(-c2[nH]cnc2-c2ccc3ncc(-c4ccc(C(=O)OCCN5CC[C@@H](N)C5)cn4)cc3c2)n1 [Compound 1167, 2-[(3R)-3-aminopyrrolidin-1-yl]ethyl 6-[6-[5-(6-methyl-2-pyridyl)-1H-imidazol-4-yl]-3-quinolyl]pyridine-3-carboxylate] | 25.1 to 158
0.0398 to 0.316 | Cc1cccc(-c2[nH]cnc2-c2ccc3ncc(-c4ccc(C(=O)OCCN5C[C@@H](C)N[C@@H](C)C5)cn4)cc3c2)n1 [Compound 1168, 2-[rac-(3S,5R)-3,5-dimethylpiperazin-1-yl]ethyl 6-[6-[5-(6-methyl-2-pyridyl)-1H-imidazol-4-yl]-3-quinolyl]pyridine-3-carboxylate] | 25.1 to 158
< 0.0316 | Cc1cccc(-c2[nH]cnc2-c2ccc3ncc(-c4csc(C(=O)OCCC5CNC5)c4)cc3c2)n1 [Compound 1169, 2-(azetidin-3-yl)ethyl 4-[6-[5-(6-methyl-2-pyridyl)-1H-imidazol-4-yl]-3-quinolyl]thiophene-2-carboxylate] | 25.1 to 158
0.0398 to 0.316 | Cc1cccc(-c2[nH]cnc2-c2ccc3ncc(-c4ccc(C(=O)OC[C@H]5CCCN5)cn4)cc3c2)n1 [Compound 1170, [(2R)-pyrrolidin-2-yl]methyl 6-[6-[5-(6-methyl-2-pyridyl)-1H-imidazol-4-yl]-3-quinolyl]pyridine-3-carboxylate] | 25.1 to 158
< 0.0316 | Cc1cccc(-c2[nH]cnc2-c2ccc3ncc(-c4csc(C(=O)OC[C@H]5CC[C@H](N)CC5)c4)cc3c2)n1 [Compound 1171, (4-aminocyclohexyl)methyl 4-[6-[5-(6-methyl-2-pyridyl)-1H-imidazol-4-yl]-3-quinolyl]thiophene-2-carboxylate] | 25.1 to 158
< 0.0316 | Cc1cccc(-c2[nH]cnc2-c2ccc3ncc(-c4nc(C(=O)OCCN5CCC[C@H](N)C5)cs4)cc3c2)n1 [Compound 1172, 2-[(3S)-3-amino-1-piperidyl]ethyl 2-[6-[5-(6-methyl-2-pyridyl)-1H-imidazol-4-yl]-3-quinolyl]thiazole-4-carboxylate] | 200 to 1260
0.0398 to 0.316 | Cc1cccc(-c2[nH]ncc2-c2ccc3ncc(C(=O)OCCN4CCCCC4)cc3c2)n1 [Compound 1173, 2-(1-piperidyl)ethyl 6-[5-(6-methyl-2-pyridyl)-1H-pyrazol-4-yl]quinoline-3-carboxylate] | 25.1 to 158
0.0398 to 0.316 | Cc1cccc(-c2[nH]cnc2-c2ccc3ncc(-c4ccc(C(=O)OCCN5CCC[C@@H](N)C5)cn4)cc3c2)n1 [Compound 1174, 2-[(3R)-3-amino-1-piperidyl]ethyl 6-[6-[5-(6-methyl-2-pyridyl)-1H-imidazol-4-yl]-3-quinolyl]pyridine-3-carboxylate] | 25.1 to 158
0.0398 to 0.316 | Cc1cccc(-c2[nH]ncc2-c2ccc3nccc(C(=O)OCCN4C[C@@H](C)N[C@@H](C)C4)c3c2)n1 [Compound 1176, 2-[(3R,5S)-3,5-dimethylpiperazin-1-yl]ethyl 6-[5-(6-methyl-2-pyridyl)-1H-pyrazol-4-yl]quinoline-4-carboxylate] | 25.1 to 158
0.0398 to 0.316 | Cc1cccc(-c2[nH]ncc2-c2ccc3ncc(C(=O)O[C@H]4CC[C@@](C)(N)CC4)cc3c2)n1 [Compound 1177, (4-amino-4-methyl-cyclohexyl) 6-[5-(6-methyl-2-pyridyl)-1H-pyrazol-4-yl]quinoline-3-carboxylate] | 25.1 to 158
0.0398 to 0.316 | Cc1cccc(-c2[nH]cnc2-c2ccc3ncc(-c4csc(C(=O)OCCN5CCC[C@@H](N)C5)c4)cc3c2)n1 [Compound 1178, 2-[(3R)-3-amino-1-piperidyl]ethyl 4-[6-[5-(6-methyl-2-pyridyl)-1H-imidazol-4-yl]-3-quinolyl]thiophene-2-carboxylate] | 25.1 to 158
0.398 to 3.16 | CN[C@H]1CC[C@H](OC(=O)c2ccnc3ccc(-c4cn[nH]c4-c4cccc(C)n4)cc23)CC1 [Compound 1179, [4-(methylamino)cyclohexyl] 6-[5-(6-methyl-2-pyridyl)-1H-pyrazol-4-yl]quinoline-4-carboxylate] | 25.1 to 158
0.0398 to 0.316 | Cc1cccc(-c2[nH]ncc2-c2ccc3ncc(C(=O)O[C@H]4C[C@H](N)C4)cc3c2)n1 [Compound 1181, (3-aminocyclobutyl) 6-[5-(6-methyl-2-pyridyl)-1H-pyrazol-4-yl]quinoline-3-carboxylate] | < 20
0.0398 to 0.316 | Cc1cccc(-c2[nH]ncc2-c2ccc3ncc(C(=O)OCCCC4CCNCC4)cc3c2)n1 [Compound 1182, 3-(4-piperidyl)propyl 6-[5-(6-methyl-2-pyridyl)-1H-pyrazol-4-yl]quinoline-3-carboxylate] | 25.1 to 158
